Experimental findings from patent US8889724B2, “Tetrazole compounds for reducing uric acid” (Wellstat Therapeutics Corporation, priority 2008, dated 2014) are described below.

In general, inhibition refers to the drop in the measured response relative to a control, in per cent. Lower therefore signals little suppression. The term IC50 denotes the concentration that gives 50% inhibition. Low values mean inhibition by little substance, high ones a need for much substance. As usually defined, the Cmax is the highest concentration seen after dosing.

Values joined by “and” are separate entries in the source; they are usually repeats but may differ in a detail not shown here. Equal entries are not always repeated.

For one data set, the target named is human URAT1 (Homo sapiens (Human), UniProt Q96S37). In words: URAT1 inhibition assay: [8-14C] urate uptake in hURAT1-HEK cells. Type of data set: cell-based. The following applies: for inhibition at 10 µM: hURAT1-HEK cells; for IC50: 14C urate uptake in hURAT1-HEK cells. As for the experimental part: URAT1 (Uric Acid Transporter 1) is expressed on the apical membrane in renal tubules. It mediates the re-uptake of uric acid from the urine into the blood.
A suitable assay involves transfection of cells (e g human embryonic kidney cells; “HEK”) with a vector encoding human URAT1, followed by determination of the ability of transfected cells to take up radiolabeled uric acid. The activity of compounds as URAT1 inhibitors is evaluated by their ability to block uric acid uptake by transfected cells.
Test Compounds and Chemicals:
Urate (50-60 mCi/mmol; American Radio Chemicals, Cat. No. ARC0513).
Subcloning of hURAT1 into the Expression Vector:
Plasmid vector pCMV6-XL5 containing hURAT1 cDNA (Cat. No. SC125624) and the expression vector pCMV6-Neo (Cat. No. pCMVNEO) were obtained from OriGene Technologies, Inc. The full-length hURAT1 cDNA was obtained from the vector pCMV6-XL5 and subcloned into the expression vector pCMV6-Neo to create the hURAT1 expression plasmid pCMV6-hURAT1. The sequences were verified by automatic DNA sequencing.
Cell Culture, Transfection of URAT1 Expressing Plasmids and the Establishment of Stably Expressing HEK Cells for hURAT1:
For transfection experiments, cells were plated on 60 mm dishes in 1 ml media per dish. […] Stable transfectants expressing hURAT1 (herein after referred as hURAT1-HEK cells) or cells having only the expression vector pCMV6-Neo (herein after referred as mock-HEK cells) were verified using reverse transcription polymerase chain reaction (RT-PCR) methods.
[8-^14C] Urate Uptake Assay:
Before the uptake assay started, the culture medium was removed and the cells were incubated for 5 min in 0.6 ml of HBSS. After that HBSS was removed, the prepared reaction solutions were added into each well and incubated for 5 min at room temperature. Then the reaction solution was removed, cells were washed twice with 0.6 ml of cold HBSS and lysed with 0.2 ml of 0.1 M NaOH for 20 min. […] Test compounds were dissolved in DMSO and the same concentration of DMSO was added into the wells of mock-HEK cells and the hURAT1-HEK cells that didn't contain test compounds. For each test compound, the uptake assay was performed 2 times and carried out in triplicate. Urate uptake of the cells for each test condition was presented as the average percent inhibition in comparison to the DMSO control. The radioactivity values obtained for the wells that contained DMSO were taken as 100% uptake of the cells. The observed concentration-percent inhibition data were fitted to a sigmoidal concentration-effect model, where: % Inhibition=(100*Conc^Slope)/(IC50^Slope+Conc^Slope)
In this example the compounds were not necessarily tested simultaneously.

Data set [1] in a line: Rat pilot single-dose oral pharmacokinetic study with Compound EC. Type of data set: in vivo. The following applies: 100 mg/kg single oral gavage; for Compound EC concentration in plasma, individual rats: male Sprague-Dawley rat. How it is done: Rat Pilot Single-Dose Oral Pharmacokinetic Study with Compound EC
Determination of the Plasma Profile of Compound EC Following Single Oral Gavage Administration to Male Rats.
(§1) Test compound was suspended in 1% HPMC using a tissue homogenizer to minimize particles and maximize uniformity of the suspension and stored at 4° C. The formulations was thoroughly mixed just prior to administration. A dose of 100 mg/kg of test compounds or vehicle (1% HPMC) was administered to male Sprague-Dawley rats by single oral gavage. […] The blood samples were centrifuged within 30 minutes of collection under refrigeration (2-8° C.) for 7 minutes at 6000 rpm. Following centrifugation, the plasma were harvested into a single tube for each animal at each time point and immediately frozen at −80° C. until analyzed using LC/MS-MS. Serial plasma concentration time data was subjected to pharmacokinetic analyses using WinNonlin Standard (v2.1, Pharsight Corporation) and Microsoft EXCEL.
1. Rats received single oral gavage of Compound EC, 100 mg/kg, and plasma was collected at certain times.
(§2) 2. Plasma was stored at −80° C. until the day of analysis.
(§3) 3. Samples were thawed on 37° C. bath for 5 min and vortexed at top speed for 10 sec.
(§4) 4. Rat plasma, 0.1 mL was mixed with 0.2 mL Acetonitrile, vortexed 1 min, spun down 14000 rpm, 17000 g, at 4° C., for 25 min.
(§5) 5. Supernatants were filtered through 0.45 micron, 4 mm, PTFE membrane syringe filter (Phenomenex # AF0-3102-52), and 15 microL were injected and resolved on Luna 3 micron, 100 A pore, C8(2), 150×3 mm, reverse phase column (Phenomenex#00F-4248-YO, SN#259151-7) in 50 min linear gradient from 40% to 69% of (0.1% Formic Acid, 89.9% Acetonitrile, 10% Methanol) at 0.25 mL/min, 107 bar, 37° C. column temperature, method 406975M1, AGILENT sequence 0226-09A, Agilent 1100 LC-MS.
(§6) All samples were run in duplicate, 210 nm and 230 nm Absorbances, Negative and Positive ionization spectrograms were recorded.
Step 1. Plasma from “Vehicle” animals (pooled), 0.19 mL, was mixed with 0.01 mL 20× stock of Compound EC in Methanol to make 500 microM, 250 microM, 125 microM, concentrations of Compound EC in plasma.
For example: 190 microL plasma+10 microL of 10 mM Compound EC in methanol=0.2 mL plasma with 500 microM Compound EC.
(§7) Step 2. Samples from step 1 were vortexed for 10 sec at top speed.
(§8) Step 3. 0.4 mL of acetonitrile was added to all samples from Step 2, and all vials were vortexed at top speed for 1 min.
(§9) Step 4. All samples from step 3 were spun down 14000 rpm, 17000 g, at 4° C., for 25 min.
(§10) Step 5. Supernatants were filtered through 0.45 micron, 4 mm, PTFE membrane syringe filter (Phenomenex # AF0-3102-52), 15 microL were injected and resolved on Luna 3 micron, 100 A pore, C8(2), 150×3 mm, reverse phase column (Phenomenex#00F-4248-YO, SN#259151-7) in 50 min linear gradient from 40% to 69% of (0.1% Formic Acid, 89.9% Acetonitrile, 10% Methanol) at 0.25 mL/min, 107 bar, 37° C. column temperature. All samples were run in duplicate, 210 nm and 230 nm Absorbances, Negative and Positive ionization spectrograms were recorded.

The nature of data set [2]: Rat pilot single-dose oral pharmacokinetic study with Compound EG. It is filed as in vivo. The note with it: 100 mg/kg single oral gavage; for Concentration of Compound EG in rat plasma, individual rats: male Sprague-Dawley rat. How it is done: Rat Pilot Single-Dose Oral Pharmacokinetic Study with Compound EG
Determination of the Plasma Profile of Compound EG Following Single Oral Gavage Administration to Male Rats.
as §1
1. Rats received single oral gavage of Compound EG, 100 mg/kg, and plasma was collected at certain times.
as §2, §3, §4, §5, §6
Step 1. Plasma from “Vehicle” animals (pooled), 0.19 mL, was mixed with 0.01 mL 20× stock of Compound EG in Methanol to make 500 microM, 250 microM, 125 microM, . . . , concentrations of Compound EG in plasma.
For example: 190 microL plasma+10 microL of 10 mM Compound EG in methanol=0.2 mL plasma with 500 microM Compound EG.
as §7, §8, §9, §10

[3] abbreviates: Sprague-Dawley, rat, male rats, plasma.
The mark [4] stands for this setting: Sprague-Dawley, rat, male rats, plasma, read-out: AUC0-24.
Setting [5] is: male, Sprague-Dawley, rat, plasma, 0 HR.
Where [6] appears, read: male, Sprague-Dawley, rat, plasma, 0.25 HR.
[7] abbreviates: male, Sprague-Dawley, rat, plasma, 0.5 HR.
Where [8] appears, read: male, Sprague-Dawley, rat, plasma, 1 HR.
Where [9] appears, read: male, Sprague-Dawley, rat, plasma, 2 HR.
The mark [10] stands for this setting: male, Sprague-Dawley, rat, plasma, 4 HR.
Setting [11] is: male, Sprague-Dawley, rat, plasma, 6 HR.
The mark [12] stands for this setting: male, Sprague-Dawley, rat, plasma, 8 HR.
Setting [13] is: male, Sprague-Dawley, rat, plasma, 24 HR.

Sequence of human URAT1 (Q96S37 whole entry): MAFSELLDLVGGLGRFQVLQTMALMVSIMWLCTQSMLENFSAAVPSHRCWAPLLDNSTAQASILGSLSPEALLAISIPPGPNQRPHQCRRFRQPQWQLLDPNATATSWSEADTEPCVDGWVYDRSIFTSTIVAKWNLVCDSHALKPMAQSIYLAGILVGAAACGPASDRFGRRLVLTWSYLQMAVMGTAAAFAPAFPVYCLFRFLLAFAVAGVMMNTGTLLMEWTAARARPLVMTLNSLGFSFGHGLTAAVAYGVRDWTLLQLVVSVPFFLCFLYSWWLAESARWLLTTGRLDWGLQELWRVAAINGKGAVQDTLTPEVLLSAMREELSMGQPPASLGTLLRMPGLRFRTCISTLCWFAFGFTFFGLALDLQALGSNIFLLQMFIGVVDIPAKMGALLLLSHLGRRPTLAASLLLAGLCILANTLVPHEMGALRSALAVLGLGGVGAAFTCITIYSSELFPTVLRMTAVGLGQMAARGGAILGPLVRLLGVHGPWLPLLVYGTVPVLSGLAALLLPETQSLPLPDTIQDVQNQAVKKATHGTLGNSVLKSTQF

The compound `Cc1cccc(C)c1COc1cccc(Cc2nnn[nH]2)c1C` [EH, 5-(3-(2,6-Dimethylbenzyloxy)-2-methylbenzyl)-1H-tetrazole] gave an inhibition at 10 µM on human URAT1 of 80%.
For `COc1c(Cc2nnn[nH]2)cccc1OCc1c(C)cccc1C` [EI, 5-(3-(2,6-Dimethylbenzyloxy)-2-methoxybenzyl)-1H-tetrazole], the inhibition at 10 µM against human URAT1 amounted to 44%.
With `Cc1cccc(C)c1COc1cccc(Cc2nnn[nH]2)c1` [Compound EC, 5-(3-(2,6-Dimethylbenzyloxy)benzyl)-1H-tetrazole], at human URAT1, at 10 µM the inhibition was 95.2%. Further, 240 nM corresponded to half-maximal inhibition against human URAT1 (IC50). For the same compound, the Cmax in data set [1] (setting [3]) stood at 61000 ng/mL. Further, the AUC(0-t) in data set [1] (setting [4]) was 672 µg·h/mL. In addition, the “Compound EC concentration in plasma, individual rats” value in data set [1] (0.25 HR) was 114 µM and 67 µM; in data set [1] (0.5 HR), 45 µM and 25 µM; in data set [1] (1 HR) it was 17 µM and 222 µM; in data set [1] (2 HR) it was 384 µM and 29 µM; in data set [1] (4 HR), 35 µM and 11 µM; in data set [1] (6 HR), 85 µM and 73 µM and 62 µM. In addition, the “Compound EC concentration in plasma, individual rats” value in data set [1] (8 HR) is 107 µM and 262 µM; in data set [1] (24 HR), 0 µM. The concentration at 0 h in data set [1] (setting [5]) turned out to be 0 ng/mL. Moreover, the concentration at 0.25 h in data set [1] (setting [6]) was 27000 ng/mL. For the same compound, the concentration at 0.5 h in data set [1] (setting [7]) was determined as 10000 ng/mL. The concentration at 1 h in data set [1] (setting [8]) was found to be 35000 ng/mL. The concentration at 2 h in data set [1] (setting [9]) came out at 61000 ng/mL. Moreover, the concentration at 4 h in data set [1] (setting [10]) worked out at 7000 ng/mL. Also, the concentration at 6 h in data set [1] (setting [11]) is 22000 ng/mL. For the same compound, the concentration at 8 h in data set [1] (setting [12]) turned out to be 54000 ng/mL. Moreover, the concentration at 24 h in data set [1] (setting [13]) was 0 ng/mL. The “Detection in plasma (in words)” value in data set [1] (rat, LC-MS) was “readily detected”.
On human URAT1, `Fc1cccc(F)c1COc1ccc(Cc2nnn[nH]2)cc1` [BD, 5-(4-(2,6-Difluorobenzyloxy)benzyl)-1H-tetrazole] gave an inhibition at 10 µM of 56.6%.
At human URAT1, `Cc1cccc(C)c1COc1cccc(CCc2nnn[nH]2)c1` [EF, 5-(3-(2,6-Dimethylbenzyloxy)phenethyl)-1H-tetrazole] yielded an inhibition at 10 µM of 92% and an IC50 of 740 nM.
Turning to `COc1ccc(Cc2nnn[nH]2)cc1OCc1c(C)cccc1C` [ED, 5-(3-(2,6-Dimethylbenzyloxy)-4-methoxybenzyl)-1H-tetrazole], on human URAT1, the inhibition at 10 µM was found to be 96% and the IC50 was 250 nM.
As to `Cc1ccc(Cc2nnn[nH]2)cc1OCc1c(C)cccc1C` [Compound EG, 5-(3-(2,6-Dimethylbenzyloxy)-4-methylbenzyl)-1H-tetrazole], the Cmax in data set [2] (setting [3]) came out at 22000 ng/mL. Besides, the AUC(0-t) in data set [2] (setting [4]) is 94.9 µg·h/mL. Moreover, the “Concentration of Compound EG in rat plasma, individual rats” value in data set [2] (0.25 HR) was 19 µM and 27 µM; in data set [2] (0.5 HR), 29 µM and 18 µM; in data set [2] (1 HR), 101 µM and 42 µM; in data set [2] (2 HR), 25 µM and 50 µM; in data set [2] (4 HR), 14 µM and 23 µM; in data set [2] (6 HR) it was 10 µM and 17 µM. For the same compound, the “Concentration of Compound EG in rat plasma, individual rats” value in data set [2] (8 HR) was 5 µM and 19 µM; in data set [2] (24 HR), 2 µM and 0 µM. Also, the concentration at 0 h in data set [2] (setting [5]) came out at 0 ng/mL. In addition, the concentration at 0.25 h in data set [2] (setting [6]) is 7000 ng/mL. In addition, in data set [2] (setting [7]), the concentration at 0.5 h turned out to be 7000 ng/mL. The concentration at 1 h in data set [2] (setting [8]) was determined as 22000 ng/mL. The concentration at 2 h in data set [2] (setting [9]) is 12000 ng/mL. The concentration at 4 h in data set [2] (setting [10]) came to 6000 ng/mL. The concentration at 6 h in data set [2] (setting [11]) was determined as 4000 ng/mL. Moreover, in data set [2] (setting [12]), the concentration at 8 h worked out at 4000 ng/mL. In addition, the concentration at 24 h in data set [2] (setting [13]) was 0 ng/mL. Further, in data set [2] (rat, LC-MS), the “Detection in plasma (in words)” value is “readily detected”. This compound also returned an inhibition at 10 µM against human URAT1 of 95.6%. In addition, it took 130 nM to reach half-maximal inhibition against human URAT1 (IC50).
